Experimental findings from patent US20140314904A1, “PRE-SLAUGHTER DIET INCLUDING METHIONINE” (ADISSEO FRANCE S.A.S., priority 2011, published 2014) are described below.

Read-outs that look alike come from different tables or passages of the source.

The subject of experiment [1] is pigs. Description: Colour by Minolta L*a*b*, Example 2. The experiment is classed as in vivo, pig. The conditions noted are these: Laboratory, 2 days post mortem. The method, then:
(§1) The pigs were slaughtered at a commercial slaughter house in Sweden after a resting time of 5 h. At 45 minutes post mortem, pH (Knick portamess 751) and temperature (digital thermometer, Weber) were measured in the M. longissiumus dorsi at the level of the 10th rib. At 48 h post mortem, the entire loins were dissected from the carcasses and transported to the University of Copenhagen for further measurements. Ultimate pH was measured, as well as colour by Minolta L*a*b*. Dry matter content was determined by drying muscle samples at 105° C. for 24 h. Slices of 3 cm thickness were cut, measured and vacuum packed before being stored for a further 7 days at 2° C. At the end of the storage period samples were heated to an internal temperature of 75° C. After being cooled down, samples were stored cold at 2° C. until they were cut into slabs of 1 cm×1 cm×2.5 cm size for shear force measurement. For each animal, 8 specimens were measured and the mean maximum load was used for further analysis.

The subject of a further experiment is slaughter weight pigs. Here is the method:
Pigs ([Yorkshire×Swedish Landrace]×Hampshire)(n=10×3 were fed twice daily 2% of their body weight with the respective diets (either low or high methionine diets), water ad libitum.
Two square stimulating electrodes were placed next to one another (not touching) and infront of the recording electrodes, after which the muscle was stimulated at 10, 20, 60, 150 and 200 Hz and the subsequent responses were recorded. Two leads were placed on either side of the abdomen at a position of the last rib to form a “triangle” with the reference electrode and serve to record both respiratory movements as well as sECG signal.
Using electrodes placed either side of the abdomen at the position of the last rib, and a reference electrode placed on the ear, it was possible to create an Einthoven triangle and to record both an ECG (plus heart rate) and respiration rate through diaphragm movements. The recorded signal was assessed in terms of rate and the Q-T interval (time taken for the ventricles to depolarize and repolarize) using Chart analysis software (AD Instruments, Chalgrove, Oxfordshire, UK).
In addition to the sEMG recordings, we were able to obtain non-invasive measurements of the rate of respiration (breaths/min) and the heart rate (bpm) as well as an analysis of the recorded ECG in terms of the time taken for ventricle depolarization and repolarization, the so-called Q-T interval.
Table 1 presents the effects of 1 weeks dietary supplementation with DLM on the respiration and heart rate of 90-100 kg slaughter weight pigs, as well as the Q-T Interval. Values are the mean of a number of pigs, where “n” represents the number of animals per group. (ns) represents a difference between means that was not quite significant.

Experiment [2] relates to pigs. Put plainly: Shear force (maximum load) after storage, Example 2. It is filed as in vivo, pig. The conditions noted are these: 9 days post mortem, P < 0.02. Here is the method:
as §1

The next experiment has as its system slaughter pigs. Put plainly: Warner-Bratzler shear force (WBSF), instrumental hardness. It is filed as in vivo, pig. The conditions noted are these: 7 days at 2° C., LS mean ± SEM. The method, then:
In Example 1 twenty-one pigs were randomly assigned to one of three feeding groups (n=7). The control group received a standardized diet only. The DLM and HMTBA groups received the standardized diet plus a high-methionine supplement (either DLM (i.e. […] At 48 h post mortem, 3 cm thick pork chops were either vacuum packed or sealed in a modified atmosphere (MA; 80% O2) and stored for an additional 7 days at 2° C. Instrumental hardness was measured using the Warner-Bratzler shear force (WBSF; Newton) method. Protein oxidation was measured as the loss of free thiol groups in proteins (nmol thiol per mg protein) using Ellman's reagent. Lipid oxidation was measured as the increase in 2-thiobarbituric acid reactive substances (TBARS; mg malondialdehyde per kg meat). Twenty-one slaughter pigs ([Yorkshire×Swedish Landrace]×Hampshire) were raised on a commercial diet. Pigs were randomly assigned to one of three groups (n=7). […] Pork chops were cut perpendicular to the long axis of each LD muscle. Six 3 cm thick pork chops was sliced from each LD. Three were vacuum packed and three were packed in a high-oxygen modified atmosphere. The chops were placed in plastic trays ([…]-43A white/PS; 195×144×43 mm in dimension; Frch Plast, Denmark) and placed in vacuum bags (EM-628862; […] The ambient air was removed from all vacuum bags using a vacuum machine (type, manufacturer, country). […] (until 9 days post mortem). The gas composition was checked (CheckMate 9900, PBI Dansensor, Denmark) before packaging and again prior to opening, at the end of the simulated display period in order to check for leakage. The oxygen-enriched environment was well maintained (83.4%) throughout the display period for all MA packages. Instrumental hardness was measured using the Warner-Bratzler shear force (WBSF) method. In short, at the end of the display period fresh samples were heated in a water bath in an oven (type, manufacturer, country). The temperature rise was monitored for one sample and the remaining samples were given the time to reach an internal temperature of 75° C. plus five minutes. The samples were cooled down before cores of 1 cm×1 cm×2.5 cm were excised for shear force analysis.

Setting [3] is: post (n = 6), after 1 weeks dietary supplementation.
Setting [4] is: pre (n = 6), before supplementation.

Take `CSCCC(N)C(=O)O` (racemic) [DLM, DL-methionine]: in the experiment on pigs [1], the “Colour Minolta L*” value stood at 55.75 units, the “Colour Minolta a*” value came out at 6.69 units and the “Colour Minolta b*” value is reported as 2.92 units. For the same compound, in the experiment on slaughter weight pigs (setting [3]), the “Heart Rate” value turned out to be 110.11 bpm, the “Q-T Interval” value is 242.31 ms and the Respiration is 23.53 breaths/min. Further, the “Difference in Q-T Interval: INCREASE by” value in the experiment on slaughter weight pigs (post versus pre, P < 0.01) turned out to be 8.5% P < 0.01. Further, in the experiment on slaughter weight pigs (post versus pre, ns), the “Difference in Heart Rate: DECREASE by” value was 9% (ns) and the “Difference in Respiration: DECREASE by” value is 12% (ns). Also, in the experiment on slaughter weight pigs (setting [4]), the “Heart Rate” value is recorded as 121.17 bpm, the “Q-T Interval” value is 223.21 ms and the Respiration is 26.83 breaths/min. In addition, the “Maximum Load” value in the experiment with pigs [2] was 34 N. The “Instrumental hardness, WBSF values” with slaughter pigs (MAP (80% O2 + 20% CO2)) is given as 38.58 ± 3.65 ^A, B N. For the same compound, in the experiment with slaughter pigs (Vacuum), the “Instrumental hardness, WBSF values” is on record as 28.80 ± 3.65 ^D N.

In the case of `CSCCC(O)C(=O)O` (racemic) [HMTBA, 2-hydroxy-4-(methylthio) butanoic acid], in the experiment on pigs [1], the “Colour Minolta L*” value is 56.89 units, the “Colour Minolta a*” value is recorded as 7.58 units and the “Colour Minolta b*” value amounted to 3.71 units. Besides, in the experiment on pigs [2], the “Maximum Load” value was 37 N. Besides, the “Instrumental hardness, WBSF values” in the experiment on slaughter pigs (MAP (80% O2 + 20% CO2)) is recorded as 43.64 ± 3.65 ^A, B N. Further, in the experiment on slaughter pigs (Vacuum), the “Instrumental hardness, WBSF values” is 30.55 ± 3.65 ^C, D N.
